Measured values: article PMC8049364, “Quantification of Macrophage-Driven Inflammation During Myocardial Infarction with ^18F-LW223, a Novel TSPO Radiotracer with Binding Independent of the rs6971 Human Polymorphism” (Journal of Nuclear Medicine, 2021)

Biological target: T1, TSPO (Rattus norvegicus, UniProt P16257)
T1 construct: Thirty-three adult male Sprague–Dawley rats; from tissue; host or cells: living adult male Sprague-Dawley rats; heart, LV anterior wall, lung and brain VOIs
Experiment: PET/CT imaging and kinetic modelling in rat MI model, day 7
Type: in vivo
Set-up: k4 (2T analysis), mean / K1 (2T analysis), mean / k2 (2T analysis), mean / k3 (2T analysis), mean: unit not given here
Details: for K1 (2T analysis), mean / VT (2T analysis), mean / k2 (2T analysis), mean / k3 (2T analysis), mean / k3/k4 (2T analysis), mean / k4 (2T analysis), mean: MI n = 9
Procedure: For MI studies, anesthesia was induced and maintained using isoflurane (0.5%–3% in oxygen, 1 L/min) before buprenorphine (0.05 mg/kg; Alstoe Ltd.) was administered preoperatively for analgesia. Tracheal intubation was achieved under direct vision, and ventilation was maintained with a rodent ventilator (model 683 [Harvard Apparatus]; tidal volume, 2.5 cm^3; respiratory rate, 60/min). MI was induced as we have previously described ([18]), and further details can be found in the supplemental materials. Animals were imaged within 1 d of day 7 after MI, referred to as day 7 throughout the article.
Thirty-two PET scans were performed with ^18F-LW223 (17.8 ± 1.5 MBq, intravenous bolus, mean ± SEM). Naïve and MI rat scans were acquired immediately after intravenous bolus injection of ^18F-LW223. […] Dosimetry studies were conducted using mice and 240-min PET scans.
Reconstructed scans were imported into PMOD, version 3.8 (PMOD Technologies). Volumes of interest (VOIs) were manually drawn around the brain, heart, and lung using CT images. To sample the infarct area (or an equivalent area in naïve hearts), averaged PET images (0–120 min) were used to place 3 spheric VOIs at the center of the infarct territory within the ventricular wall (1.5 mm^3). […] Time–activity curves were generated, and SUVs were calculated as concentration in the VOI divided by injected dose divided by animal weight. Kinetic modeling was performed using the 2-tissue-compartment model to estimate the kinetic rate constants K1–k4 and the total volume of distribution (VT) in different tissues. Blood volume fraction (VB) was not modeled in this study. Two-tissue-compartment modeling was selected as the preferred model on the basis of a comparison of goodness and robustness of fitting versus several other models (Supplemental Fig. 3; Supplemental Table 2). The binding potential relative to nondisplaceable volume (BPND) was defined as k3/k4 ([19]). The transfer-corrected BPND, termed BPTC, was formulated as follows:Eq. 1 BPTC=k3/k4÷K1, […]
where k3 is the radiotracer association rate with specific binding, k4 is the dissociation rate constant of target ligand, and K1 is the rate constant for transfer from arterial plasma to tissues. When tissue blood flow is impaired, such as after MI, K1→blood flow, as per the Renkin–Crone equation:Eq. 2 K1=F×E=F (1−e^− PS/F), […]
Invasive Input Function Measurement
Polyethylene catheters (PE50) filled with heparinized saline (20 IU/mL) were inserted into the left femoral artery and vein with the help of a stereomicroscope and securely fastened with ligatures (6-0 silk thread). Catheters were held in place with […]
Rat Myocardial Infarction Procedure
Briefly, the skin was incised at the level of the left third and fourth ribs where the pectoral muscles were divided and retracted. Left lateral thoracotomy was then performed. With minimal handling, the pericardium was ruptured and the heart gently exteriorized from the thorax, and a nonabsorbable 5-0 ligature was placed around the left anterior descending coronary artery just above the bifurcation of the first diagonal and maneuvered back into position. Before wound closure, a drain was inserted to assist with removal of air and fluid from the thorax. Once removed, the wound was then closed in three layers. Animals were recovered and extubated once spontaneous ventilation was established, housed at 30 °C for 24 hours and given sterile sodium chloride 0.9% 0.01 mL/g fluid therapy subcutaneously in addition to another dose of Buprenorphine. After 24 hours, normal housing conditions were resumed.
Radiometabolite Blood and Tissue Processing and Analysis
All blood samples were 1 mL each and manually collected from different animals to generate a population curve, in order to respect total blood volume limits for terminal arterial blood collections in rats. Following blood and tissue collection, all samples were […]

CC[C@@H](C)N(C)C(=O)c1nc2ccccc2c(-c2ccccc2)c1C[18F] [^18F-LW223]
K1 (2T analysis), mean (Brain): 0.17 | VT (2T analysis), mean (Brain): 2.21 | k2 (2T analysis), mean (Brain): 0.19 | k3 (2T analysis), mean (Brain): 0.023 | k3/k4 (2T analysis), mean (Brain): 1.42 | k4 (2T analysis), mean (Brain): 0.02 | K1 (2T analysis), mean (Global Heart): 0.58 | VT (2T analysis), mean (Global Heart): 12.57 | k2 (2T analysis), mean (Global Heart): 0.36 | k3 (2T analysis), mean (Global Heart): 0.04 | k3/k4 (2T analysis), mean (Global Heart): 6.62 | k4 (2T analysis), mean (Global Heart): 0.01 | K1 (2T analysis), mean (LV Anterior Wall): 0.25 | VT (2T analysis), mean (LV Anterior Wall): 13.62 | k2 (2T analysis), mean (LV Anterior Wall): 0.18 | k3 (2T analysis), mean (LV Anterior Wall): 0.025 | k3/k4 (2T analysis), mean (LV Anterior Wall): 7.92 | k4 (2T analysis), mean (LV Anterior Wall): 0.01 | K1 (2T analysis), mean (Lung): 1.08 | VT (2T analysis), mean (Lung): 10.43 | k2 (2T analysis), mean (Lung): 0.39 | k3 (2T analysis), mean (Lung): 0.046 | k3/k4 (2T analysis), mean (Lung): 2.49 | k4 (2T analysis), mean (Lung): 0.02 | BPTC (MI cohort, infarct territory of anterior wall, 7 d after MI): 32.7 ± 5.0 cm^3/mL/min | reduction of K1 in LV anterior wall, MI vs naïve (rat, in vivo): 3.6 fold | reduction of k2 in LV anterior wall, MI vs naïve (rat, in vivo): 1.4 fold
